Values quoted from earlier work, collected in patent US12133892B2, “Methods and compositions for increasing susceptibility to radiation treatment by inhibiting suppression of numerical chromosomal instability of cancer cells” (MEMORIAL SLOAN KETTERING CANCER CENTER, priority 2015, dated 2024).

Assays:
Bub1 = Bub1 (Homo sapiens, UniProt O43683)
MCAK = molecular target: T1, MCAK (Homo sapiens, UniProt Q99661); settings: read-out: IC50 in inhibiting MCAK
T1 sequence (Q99661 1-725): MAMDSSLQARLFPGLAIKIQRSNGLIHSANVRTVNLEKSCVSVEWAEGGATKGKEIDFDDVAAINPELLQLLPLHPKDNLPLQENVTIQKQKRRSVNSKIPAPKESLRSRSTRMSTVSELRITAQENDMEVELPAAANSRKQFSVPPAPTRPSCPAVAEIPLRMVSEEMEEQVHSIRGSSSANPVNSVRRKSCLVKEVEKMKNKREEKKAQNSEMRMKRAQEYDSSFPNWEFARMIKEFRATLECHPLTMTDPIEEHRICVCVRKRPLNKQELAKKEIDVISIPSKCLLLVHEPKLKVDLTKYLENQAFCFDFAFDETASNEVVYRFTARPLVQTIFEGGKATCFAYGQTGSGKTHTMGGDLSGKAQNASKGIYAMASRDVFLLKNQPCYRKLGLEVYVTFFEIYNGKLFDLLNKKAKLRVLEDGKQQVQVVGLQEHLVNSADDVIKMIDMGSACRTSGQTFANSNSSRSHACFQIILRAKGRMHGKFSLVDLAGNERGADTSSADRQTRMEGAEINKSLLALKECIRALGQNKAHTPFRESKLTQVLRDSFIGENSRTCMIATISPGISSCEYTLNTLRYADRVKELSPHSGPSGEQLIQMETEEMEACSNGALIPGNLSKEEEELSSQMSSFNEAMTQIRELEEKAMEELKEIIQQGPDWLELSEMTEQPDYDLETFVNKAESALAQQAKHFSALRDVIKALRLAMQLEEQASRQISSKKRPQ

Kif2b = settings: read-out: IC50 in inhibiting Kif2b
human glioblastoma = settings: 100 mg/kg
[1] = mice, 7 days, 7.5, 22.5, 75.0 mg/kg twice a day oral
[2] = system: triple negative breast cancer, colon cancer and liver cancer; settings: animal models of triple negative breast cancer
breast cancer model = settings: mice, twice a day for 28 days, orally 10, 25, 50 mg/kg
PLK4 = molecular target: T2, PLK4 (Homo sapiens, UniProt O00444); settings: in vitro; read-out: inhibition constant (Ki)
T2 sequence (O00444 1-970): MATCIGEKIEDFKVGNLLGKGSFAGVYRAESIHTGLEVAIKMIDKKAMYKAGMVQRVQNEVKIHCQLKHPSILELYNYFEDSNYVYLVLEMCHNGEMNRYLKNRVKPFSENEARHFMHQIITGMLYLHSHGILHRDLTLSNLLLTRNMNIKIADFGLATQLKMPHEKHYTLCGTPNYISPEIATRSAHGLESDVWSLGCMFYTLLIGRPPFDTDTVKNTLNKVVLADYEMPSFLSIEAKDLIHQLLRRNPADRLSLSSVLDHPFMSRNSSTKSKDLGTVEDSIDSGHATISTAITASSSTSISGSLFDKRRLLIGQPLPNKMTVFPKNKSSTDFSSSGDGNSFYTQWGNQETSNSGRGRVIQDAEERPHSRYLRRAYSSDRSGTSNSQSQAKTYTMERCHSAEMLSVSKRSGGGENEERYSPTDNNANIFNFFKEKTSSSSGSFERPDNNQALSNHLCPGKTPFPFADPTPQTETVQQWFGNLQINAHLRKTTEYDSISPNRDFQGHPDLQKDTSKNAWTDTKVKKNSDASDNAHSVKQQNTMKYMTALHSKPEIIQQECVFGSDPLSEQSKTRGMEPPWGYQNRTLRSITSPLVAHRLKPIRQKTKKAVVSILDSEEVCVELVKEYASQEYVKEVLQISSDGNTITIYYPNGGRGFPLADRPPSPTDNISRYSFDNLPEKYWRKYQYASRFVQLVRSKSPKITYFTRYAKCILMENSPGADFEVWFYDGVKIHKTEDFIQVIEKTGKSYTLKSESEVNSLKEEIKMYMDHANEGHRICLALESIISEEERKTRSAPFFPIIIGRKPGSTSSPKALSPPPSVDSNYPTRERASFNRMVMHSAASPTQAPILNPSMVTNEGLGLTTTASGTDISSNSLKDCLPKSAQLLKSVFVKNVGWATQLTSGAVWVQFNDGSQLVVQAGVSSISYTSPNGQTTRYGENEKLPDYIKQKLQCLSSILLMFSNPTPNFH

Chain of Bub1 (O43683 whole entry, species assumed): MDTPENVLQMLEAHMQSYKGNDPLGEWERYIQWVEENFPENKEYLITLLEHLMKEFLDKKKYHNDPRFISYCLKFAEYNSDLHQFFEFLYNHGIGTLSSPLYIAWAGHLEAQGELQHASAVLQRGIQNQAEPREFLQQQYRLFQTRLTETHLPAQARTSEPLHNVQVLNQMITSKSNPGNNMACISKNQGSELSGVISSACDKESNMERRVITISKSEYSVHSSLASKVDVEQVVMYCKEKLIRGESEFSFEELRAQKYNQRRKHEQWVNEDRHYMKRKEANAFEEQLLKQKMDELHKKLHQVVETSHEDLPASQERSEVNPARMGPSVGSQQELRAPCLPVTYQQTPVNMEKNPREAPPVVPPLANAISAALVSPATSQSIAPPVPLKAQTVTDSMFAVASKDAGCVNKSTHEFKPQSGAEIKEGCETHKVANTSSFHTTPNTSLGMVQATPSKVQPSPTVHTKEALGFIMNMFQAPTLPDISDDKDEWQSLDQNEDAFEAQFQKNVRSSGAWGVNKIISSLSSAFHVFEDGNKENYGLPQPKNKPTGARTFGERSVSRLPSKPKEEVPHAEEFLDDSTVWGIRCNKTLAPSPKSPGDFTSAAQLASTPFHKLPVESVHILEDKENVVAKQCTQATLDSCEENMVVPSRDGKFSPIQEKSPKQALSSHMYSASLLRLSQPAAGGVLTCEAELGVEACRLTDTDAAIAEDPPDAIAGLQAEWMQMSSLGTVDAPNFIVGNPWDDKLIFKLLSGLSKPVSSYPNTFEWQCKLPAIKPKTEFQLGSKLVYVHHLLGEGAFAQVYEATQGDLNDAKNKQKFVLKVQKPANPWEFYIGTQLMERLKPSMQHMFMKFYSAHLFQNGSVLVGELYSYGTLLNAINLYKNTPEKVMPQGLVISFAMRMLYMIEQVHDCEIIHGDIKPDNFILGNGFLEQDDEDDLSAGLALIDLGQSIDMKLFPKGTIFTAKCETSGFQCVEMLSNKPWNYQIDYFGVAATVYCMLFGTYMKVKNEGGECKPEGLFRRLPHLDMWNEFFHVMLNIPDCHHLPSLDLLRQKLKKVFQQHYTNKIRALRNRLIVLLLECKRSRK

## CC(C)(C)n1nc(Cc2ccccc2O)c2c(N)ncnc21 [2OH-BNPP1]
Bub1
  IC50: ~0.25 µM

## COc1ccc2c(c1)[C@]1(C[C@H]1c1ccc3c(/C=C/c4ccc(CN5C[C@@H](C)O[C@@H](C)C5)cc4)n[nH]c3c1)C(=O)N2 [CFI-400945]
Breast cancer cell lines
  chromosome missegregation rates: increase chromosome missegregation rates

## CC1=C(C(=O)OC(C)C)C(c2ccc(Cl)cc2)n2c(s/c(=C\c3ccc(OCC(=O)O)cc3)c2=O)=N1 (stereo not drawn) [DHTP, (Z)-2-(4-((5-(4-chlorophenyl)-6-(isopropoxycarbonyl)-7-methyl-3-oxo-3,5-dihydro-2H-thiazolo[3,2-a]pyrimidin-2-ylidene)methyl)phenoxy)acetic acid]
MCAK
  IC50: 4.6 µM
Kif2b
  IC50: 1.2 µM

## CCc1cccc(CC)c1NC(=O)c1nn(C)c2c1CCc1cnc(Nc3ccc(C(=O)NC4CCN(C)CC4)cc3OC(F)(F)F)nc1-2 [NMS-P715]
Human glioblastoma
  radiosensitization of human glioblastoma: enhances radiosensitization of human glioblastoma

## COc1cc2c(cc1F)C(c1ccccc1Cl)=Nc1c(n[nH]c1C)N2 [R1530]
BubR1
  expression of mitotic checkpoint kinase BubR1: downregulates

## COc1ccc(Oc2cc(C)c(-c3csc(NC(=O)c4ccncc4)n3)c(C)c2)cc1 [TAI-1]
[1]
  change in body weight, organ weight, and plasma indices: no significant change
[2]
  oral efficacy in vivo: effective orally

## COCCOc1cnc(Sc2cc(C)c(-c3csc(NC(=O)c4ccncc4)n3)c(C)c2)cn1 [TAI-95]
Breast cancer model
  oral efficacy in vivo: excellent oral efficacy

## COc1c(Nc2cc(C)[nH]n2)nc(Sc2ccc(S(=O)(=O)Cc3cccc([N+](=O)[O-])c3F)cc2F)nc1N1CCCCC1 [centrinone-B]
centrosome
  centrosome depletion at concentration: 500 nM
PLK4
  Ki: 0.0006 µM

## COc1c(Nc2cc(C)[nH]n2)nc(Sc2ccc(S(=O)(=O)Cc3cccc([N+](=O)[O-])c3F)cc2F)nc1N1CCOCC1 [centrinone]
centrosome
  centrosome depletion at concentration: 100 nM
